#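 96-well plates; 48 h exposure; 5 concentrations. Endpoints by linear interpolation between flanking doses. Not reached: highest tested concentration assigned. Abbreviation: GI50, concentration required for 50% inhibition of growth. TGI marks complete inhibition of growth.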
# What was measured:
# Assay in all cases: NCI tumour cell line growth inhibition, 48 h
# [1] = test system: 786-0 renal
# [2] = test system: SN12C renal
# [3] = test system: SW-620 colon
# [4] = test system: OVCAR-4 ovarian
# [5] = test system: SF-268 CNS
# [6] = test system: NCI/ADR-RES ovarian
# [7] = test system: A549 NSCLC
# [8] = test system: SK-OV-3 ovarian
# [9] = test system: KM12 colon
# [10] = test system: MCF7 breast
# [11] = test system: MDA-MB-231 breast
# [12] = test system: HS 578T breast
# [13] = test system: HL-60(TB) leukemia
# [14] = test system: PC-3 prostate
# [15] = test system: LOX IMVI melanoma
# [16] = test system: HCT-116 colon
# [17] = test system: COLO 205 colon
# [18] = test system: MDA-MB-435
# [19] = test system: CAKI-1 renal
# [20] = test system: EKVX NSCLC
# [21] = test system: NCI-H226 lung
# [22] = test system: HT29 colon
# [23] = test system: OVCAR-5 ovarian
# [24] = test system: RXF 393 renal
# [25] = test system: OVCAR-8 ovarian
# [26] = test system: SNB-75 CNS
# [27] = test system: SK-MEL-5 melanoma
# [28] = test system: SF-295 CNS
# [29] = test system: OVCAR-3 ovarian
# [30] = test system: SK-MEL-28 melanoma
# [31] = test system: K-562 leukemia
# [32] = test system: IGROV1 ovarian
# [33] = test system: DU-145 prostate
# [34] = test system: BT-549 breast
# [35] = test system: UACC-257 melanoma
# [36] = test system: CCRF-CEM leukemia
# [37] = test system: SK-MEL-2 melanoma
# [38] = test system: NCI-H23 lung
# [39] = test system: HOP-62 NSCLC
# [40] = test system: UACC-62 melanoma
# [41] = test system: MALME-3M melanoma
# [42] = test system: HCT-15 colon
# [43] = test system: SNB-19 CNS
# [44] = test system: NCI-H460 lung
# [45] = test system: NCI-H522 lung
# [46] = test system: HOP-92 NSCLC
# [47] = test system: SF-539 CNS
# [48] = test system: U251 CNS
# [49] = test system: RPMI-8226 leukemia
# [50] = test system: UO-31 renal
# [51] = test system: TK-10 renal
# [52] = test system: ACHN renal
# [53] = test system: MOLT-4 leukemia
# [54] = test system: M14 melanoma
# [55] = test system: A498 renal
# [56] = test system: SR leukemia
smiles,measurement,setting,value
COC(=O)Cc1ccc(Oc2cnc3cc(F)c(F)cc3n2)cc1,GI50,[1],> 100 µM
same,TGI,[1],> 100 µM
same,GI50,[2],> 100 µM
same,TGI,[2],> 100 µM
same,GI50,[3],> 100 µM
same,TGI,[3],> 100 µM
same,GI50,[4],58.3 µM
same,TGI,[4],> 100 µM
same,GI50,[5],> 100 µM
same,TGI,[5],> 100 µM
same,GI50,[6],23.8 µM
same,TGI,[6],81.1 µM
same,GI50,[7],> 100 µM
same,TGI,[7],> 100 µM
same,GI50,[8],> 100 µM
same,TGI,[8],> 100 µM
same,GI50,[9],> 100 µM
same,TGI,[9],> 100 µM
same,GI50,[10],> 100 µM
same,TGI,[10],> 100 µM
same,GI50,[11],> 100 µM
same,TGI,[11],> 100 µM
same,GI50,[12],> 100 µM
same,TGI,[12],> 100 µM
same,GI50,[13],42.5 µM
same,TGI,[13],> 100 µM
same,GI50,[14],63.7 µM
same,TGI,[14],> 100 µM
same,GI50,[15],> 100 µM
same,TGI,[15],> 100 µM
same,GI50,[16],26 µM
same,TGI,[16],> 100 µM
same,GI50,[17],> 100 µM
same,TGI,[17],> 100 µM
same,GI50,[18],> 100 µM
same,TGI,[18],> 100 µM
same,GI50,[19],> 100 µM
same,TGI,[19],> 100 µM
same,GI50,[20],94.3 µM
same,TGI,[20],> 100 µM
same,GI50,[21],52.9 µM
same,TGI,[21],> 100 µM
same,GI50,[22],58.1 µM
same,TGI,[22],> 100 µM
same,GI50,[23],> 100 µM
same,TGI,[23],> 100 µM
same,GI50,[24],> 100 µM
same,TGI,[24],> 100 µM
same,GI50,[25],> 100 µM
same,TGI,[25],> 100 µM
same,GI50,[26],> 100 µM
same,TGI,[26],> 100 µM
same,GI50,[27],32 µM
same,TGI,[27],> 100 µM
same,GI50,[28],> 100 µM
same,TGI,[28],> 100 µM
same,GI50,[29],93.3 µM
same,TGI,[29],> 100 µM
same,GI50,[30],> 100 µM
same,TGI,[30],> 100 µM
same,GI50,[31],31.1 µM
same,TGI,[31],94.8 µM
same,GI50,[32],> 100 µM
same,TGI,[32],> 100 µM
same,GI50,[33],> 100 µM
same,TGI,[33],> 100 µM
same,GI50,[34],> 100 µM
same,TGI,[34],> 100 µM
same,GI50,[35],> 100 µM
same,TGI,[35],> 100 µM
same,GI50,[36],44.2 µM
same,TGI,[36],> 100 µM
same,GI50,[37],> 100 µM
same,TGI,[37],> 100 µM
same,GI50,[38],68.4 µM
same,TGI,[38],> 100 µM
same,GI50,[39],> 100 µM
same,TGI,[39],> 100 µM
same,GI50,[40],> 100 µM
same,TGI,[40],> 100 µM
same,GI50,[41],> 100 µM
same,TGI,[41],> 100 µM
same,GI50,[42],> 100 µM
same,TGI,[42],> 100 µM
same,GI50,[43],> 100 µM
same,TGI,[43],> 100 µM
same,GI50,[44],> 100 µM
same,TGI,[44],> 100 µM
same,GI50,[45],> 100 µM
same,TGI,[45],> 100 µM
same,GI50,[46],> 100 µM
same,TGI,[46],> 100 µM
same,GI50,[47],> 100 µM
same,TGI,[47],> 100 µM
same,GI50,[48],> 100 µM
same,TGI,[48],> 100 µM
same,GI50,[49],23.2 µM
same,TGI,[49],81 µM
same,GI50,[50],> 100 µM
same,TGI,[50],> 100 µM
same,GI50,[51],> 100 µM
same,TGI,[51],> 100 µM
same,GI50,[52],> 100 µM
same,TGI,[52],> 100 µM
same,GI50,[53],12.7 µM
same,TGI,[53],32.9 µM
CN(CCNCc1cn(C)c2c1ccc1ccccc12)CCNCc1cn(C)c2c1ccc1ccccc12,TGI,[54],0.904 µM
same,TGI,[1],1.83 µM
same,TGI,[3],2.57 µM
same,TGI,[4],2.64 µM
same,TGI,[6],2.54 µM
same,TGI,[7],2.31 µM
same,TGI,[9],2.32 µM
same,TGI,[11],2.99 µM
same,TGI,[14],2.57 µM
same,TGI,[16],2.33 µM
same,TGI,[17],2.33 µM
same,TGI,[18],2.86 µM
same,TGI,[22],2.77 µM
same,TGI,[24],1.71 µM
same,TGI,[25],3.34 µM
same,TGI,[55],13.9 µM
same,TGI,[56],2.88 µM
same,TGI,[30],2.84 µM
same,TGI,[32],3.24 µM
same,TGI,[33],2.76 µM
same,TGI,[35],3.03 µM
same,TGI,[36],2.21 µM
same,TGI,[38],2.67 µM
same,TGI,[41],3.61 µM
same,TGI,[42],2.5 µM
same,TGI,[43],2.3 µM
same,TGI,[44],> 100 µM
same,TGI,[45],2.86 µM
same,TGI,[46],3.38 µM
same,TGI,[47],3.16 µM
same,TGI,[48],2.11 µM
same,TGI,[49],> 100 µM
same,TGI,[52],2.97 µM
same,TGI,[53],2.81 µM

# Source: PubChem BioAssay (NCI)
